# Assay results: patent US12291504B2 (University of Pittsburgh—Of the Commonwealth System of …, priority 2018, dated 2025)
# How the values were obtained:
# [1] = target: T1, SULT1A3 L67G (Homo sapiens, UniProt P0DMM9, L67G); test: Binding-site mutation effect on Ki CMP8, L67G; format: biochemical; details: L67G versus wild type
# T1 construct: N-His/GST/MBP triple-tag (N, cleaved yes); made in house; host or cells: E. coli BL21(DE3)
# Protocol: Initial-Rate Studies. Initial-rate parameters for the labeled or mutant SULT1A3 constructs were determined using a previously described 1-HP assay (25). Briefly, reactions were initiated by addition of PAPS (0.50 mM, 17×Km) to a solution containing enzyme (20 nM, active sites), 1-HP (2.0 μM, ˜24×Km), and KPO4 (50 mM), pH 7.5, 25±2° C. Reactions were monitored via fluorescence change associated with the conversion of 1-HP to 1-HP-S (λex=325 nm, λem=370 nm). Keq for the 1-HP sulfonation reaction is […]. Given the reaction conditions outlined above, ≥99% of 1-HP is converted to 1-HP-S, and ˜0.4% of PAPS is converted to PAP at equilibrium. […] Reaction progress curves were analyzed to obtain initial-rate parameters as described previously (26,27).
# Inhibition studies. Inhibition parameters were determined under conditions identical to those described above (see, Initial-Rate Studies) except that [1-HP] was increased to 5.0 μM (˜61×Km) and inhibitor concentration was varied between 0.20-20×Ki. Ki was obtained using a least-squares fit to the following partial inhibition equation (25,28): v=kcat·(Ki+(1/kcat inh)·[I])/(Ki+[I]), where kcat inh is enzyme turnover at saturating substrates and allosteric inhibitor.
# Confirming the Structure. The structure was validated by testing its ability to predict the consequences of mutations on the initial-rate parameters of the enzyme. […]
# [2] = target: SULT1A3 (Homo sapiens, UniProt P0DMM9); test: Pre-steady state binding of PAP to SULT1A3 (stopped-flow fluorescence); parameters: Wild-type and mutant SULT1A3 coding regions were inserted into a pGEX-6P expression vector; N-His/GST/MBP triple-tag (N, cleaved yes); made in house; host or cells: E. coli BL21(DE3); details: PAP release, saturating CMP8
# Sequence of SULT1A3 (P0DMM9 whole entry): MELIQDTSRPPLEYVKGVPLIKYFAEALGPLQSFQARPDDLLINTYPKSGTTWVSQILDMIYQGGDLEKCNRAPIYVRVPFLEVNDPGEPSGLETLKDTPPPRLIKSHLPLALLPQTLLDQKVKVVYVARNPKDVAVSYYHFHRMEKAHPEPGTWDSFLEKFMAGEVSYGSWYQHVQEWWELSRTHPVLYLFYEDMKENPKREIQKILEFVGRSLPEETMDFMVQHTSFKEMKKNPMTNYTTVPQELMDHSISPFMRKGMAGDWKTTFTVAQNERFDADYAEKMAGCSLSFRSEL
# Protocol: The effect of CMP8 on PAP binding to SULT1A3 was monitored using a stopped-flow spectrofluorimeter (λex=290 nm, λem≥330 nm (cutoff filter)). […] Each kobs value was determined in triplicate and the averaged values are shown. kon and koff are given, respectively, by the slopes and intercepts obtained from linear least-squares fitting of the kobs vs [PAP] plots.
# (§1) Pre-Steady State Binding Studies. The pre-steady state binding of PAP to SULT1A3 was monitored via ligand-induced enzyme fluorescence changes in SULT1A3 using an Applied Photophysics SX20 stopped-flow spectrofluorimeter (32). […] All reactions were pseudo first order in [PAP]. The observed rate constant (kobs) at a given [PAP] was taken as the average of three independent progress curves each obtained from a single-exponential fit of 6-9 averaged, binding progress curves. The rate constants, kon and koff, were obtained from the slopes and intercepts predicted by linear least-squares analysis of four-points kobs vs [PAP] plots.
# Given that CMP8 interacts with the SULT1A3 cap, it was reasoned it might inhibit by stabilizing the cap-closed form(s) of the enzyme. To test this hypothesis, the microscopic rate constants for nucleotide binding and release were determined in the presence and absence of saturating CMP8. The binding reactions were monitored via intrinsic fluorescence changes associated with ligand binding (30-32) (see, Methods). The resulting kobs vs [PAP] plots are presented in FIG. 4. kon and koff are obtained, respectively, from the slopes and intercepts of the plots (30,31), see Table C. […] Thus, CMP8 does indeed slow nucleotide release by increasing Kiso and thus stabilizing the closed form of the cap.
# as §1, with “(29).” for “(32).”
# T1 sequence (P0DMM9 whole entry L67G): as the sequence (P0DMM9 whole entry) above, with L67G counted along it
smiles,measurement,setting,value
"CC(C)Cc1ccc2cc(CO)ccc2n1 [Compound 8, (2-Isobutylquinolin-6-yl)methanol]",increase in Ki CMP8,[1],5.3 fold
same,"koff (+CMP8)/koff (−CMP8), ratio of nucleotide off-rate constants",[2],0.41 (±0.05)
